Laboratory results: the NIST ThermoML archive (doi:10.1016/j.jct.2014.01.012)
Numbers after ± are expanded uncertainties.

Assay: xn = mol fraction of the nth substance listed
Details: 101 kPa, Liquid

CCCCCCCC[n+]1ccn(C)c1.F[P-](F)(F)(F)(F)F [1-octyl-3-methylimidazolium hexafluorophosphate] + CCOC(C)=O
Details | mass density [kg/m3] | speed of sound [m/s]
293.15 K, x1 = 0.1056 | 992.13 ± 0.33 | 1246.8 ± 2.6
293.15 K, x1 = 0.2064 | 1052.79 ± 0.53 | 1300.8 ± 2.8
293.15 K, x1 = 0.308 | 1097.25 ± 0.81 | 1323 ± 2.9
293.15 K, x1 = 0.4094 | 1130.77 ± 1.1 | 1339 ± 3.1
293.15 K, x1 = 0.4991 | 1154.21 ± 1.5 | 1349 ± 3.2
293.15 K, x1 = 0.5916 | 1174.12 ± 1.9 | 1356.8 ± 3.3
293.15 K, x1 = 0.694 | 1192.49 ± 2.4 | 1363.1 ± 3.5
293.15 K, x1 = 0.8121 | 1210.2 ± 3 | 1368.1 ± 3.7
293.15 K, x1 = 0.8895 | 1220.31 ± 3.5 | 1374.2 ± 3.9
293.15 K, x1 = 1 | 1222.81 ± 4.2 | 1388.2 ± 4.1
298.15 K, x1 = 0.1056 | 987.426 ± 0.33 | 1228.2 ± 2.6
298.15 K, x1 = 0.2064 | 1048.5 ± 0.52 | 1284.8 ± 2.8
298.15 K, x1 = 0.308 | 1093.04 ± 0.79 | 1303.4 ± 2.9
298.15 K, x1 = 0.4094 | 1126.53 ± 1.1 | 1325 ± 3
298.15 K, x1 = 0.4991 | 1150 ± 1.4 | 1335.1 ± 3.2
298.15 K, x1 = 0.5916 | 1169.99 ± 1.8 | 1342.7 ± 3.3
298.15 K, x1 = 0.694 | 1188.53 ± 2.3 | 1348.9 ± 3.5
298.15 K, x1 = 0.8121 | 1206.48 ± 3 | 1353.8 ± 3.7
298.15 K, x1 = 0.8895 | 1216.63 ± 3.5 | 1358.3 ± 3.8
298.15 K, x1 = 1 | 1218.9 ± 4.2 | 1373.4 ± 4.1
303.15 K, x1 = 0.1056 | 982.485 ± 0.34 | 1209.8 ± 2.6
303.15 K, x1 = 0.2064 | 1044 ± 0.5 | 1268.9 ± 2.8
303.15 K, x1 = 0.308 | 1088.65 ± 0.78 | 1288.2 ± 2.9
303.15 K, x1 = 0.4094 | 1122.2 ± 1.1 | 1309 ± 3
303.15 K, x1 = 0.4991 | 1145.83 ± 1.4 | 1320.9 ± 3.2
303.15 K, x1 = 0.5916 | 1166.01 ± 1.8 | 1328.6 ± 3.3
303.15 K, x1 = 0.694 | 1184.79 ± 2.3 | 1334.7 ± 3.5
303.15 K, x1 = 0.8121 | 1202.87 ± 3 | 1339.7 ± 3.7
303.15 K, x1 = 0.8895 | 1212.97 ± 3.5 | 1345.2 ± 3.8
303.15 K, x1 = 1 | 1214.96 ± 4.1 | 1359.3 ± 4
308.15 K, x1 = 0.1056 | 977.389 ± 0.35 | 1191.5 ± 2.6
308.15 K, x1 = 0.2064 | 1039.34 ± 0.49 | 1253 ± 2.7
308.15 K, x1 = 0.308 | 1084.23 ± 0.77 | 1273.5 ± 2.9
308.15 K, x1 = 0.4094 | 1117.99 ± 1.1 | 1298 ± 3
308.15 K, x1 = 0.4991 | 1141.76 ± 1.4 | 1306.3 ± 3.1
308.15 K, x1 = 0.5916 | 1162.11 ± 1.8 | 1314.2 ± 3.3
308.15 K, x1 = 0.694 | 1180.99 ± 2.3 | 1320.5 ± 3.5
308.15 K, x1 = 0.8121 | 1199.1 ± 2.9 | 1325.6 ± 3.7
308.15 K, x1 = 0.8895 | 1209.17 ± 3.4 | 1331.3 ± 3.8
308.15 K, x1 = 1 | 1211.13 ± 4.1 | 1345.8 ± 4
313.15 K, x1 = 0.1056 | 972.526 ± 0.36 | 1173.3 ± 2.5
313.15 K, x1 = 0.2064 | 1034.74 ± 0.48 | 1237.5 ± 2.7
313.15 K, x1 = 0.308 | 1079.71 ± 0.76 | 1258.3 ± 2.8
313.15 K, x1 = 0.4094 | 1113.66 ± 1.1 | 1282 ± 3
313.15 K, x1 = 0.4991 | 1137.66 ± 1.4 | 1292.8 ± 3.1
313.15 K, x1 = 0.5916 | 1158.28 ± 1.8 | 1300.8 ± 3.3
313.15 K, x1 = 0.694 | 1177.41 ± 2.3 | 1307.2 ± 3.4
313.15 K, x1 = 0.8121 | 1195.57 ± 2.9 | 1312.3 ± 3.6
313.15 K, x1 = 0.8895 | 1205.55 ± 3.4 | 1318.4 ± 3.8
313.15 K, x1 = 1 | 1207.33 ± 4.1 | 1332.7 ± 4
318.15 K, x1 = 0.1056 | 967.143 ± 0.37 | 1155.2 ± 2.5
318.15 K, x1 = 0.2064 | 1029.94 ± 0.47 | 1222.1 ± 2.7
318.15 K, x1 = 0.308 | 1075.23 ± 0.74 | 1243.5 ± 2.8
318.15 K, x1 = 0.4094 | 1109.39 ± 1.1 | 1268 ± 3
318.15 K, x1 = 0.4991 | 1133.54 ± 1.4 | 1279.3 ± 3.1
318.15 K, x1 = 0.5916 | 1154.33 ± 1.8 | 1287.5 ± 3.2
318.15 K, x1 = 0.694 | 1173.67 ± 2.3 | 1294 ± 3.4
318.15 K, x1 = 0.8121 | 1192.1 ± 2.9 | 1299.2 ± 3.6
318.15 K, x1 = 0.8895 | 1202.11 ± 3.4 | 1305.2 ± 3.8
318.15 K, x1 = 1 | 1203.5 ± 4 | 1320.1 ± 4
323.15 K, x1 = 0.1056 | 962.069 ± 0.38 | 1132.4 ± 2.5
323.15 K, x1 = 0.2064 | 1025.26 ± 0.46 | 1206.9 ± 2.7
323.15 K, x1 = 0.308 | 1070.7 ± 0.73 | 1229.1 ± 2.8
323.15 K, x1 = 0.4094 | 1105.03 ± 1 | 1250 ± 3
323.15 K, x1 = 0.4991 | 1129.38 ± 1.4 | 1265.9 ± 3.1
323.15 K, x1 = 0.5916 | 1150.44 ± 1.8 | 1274.2 ± 3.2
323.15 K, x1 = 0.694 | 1170.05 ± 2.2 | 1280.9 ± 3.4
323.15 K, x1 = 0.8121 | 1188.56 ± 2.9 | 1286.3 ± 3.6
323.15 K, x1 = 0.8895 | 1198.5 ± 3.4 | 1292.2 ± 3.8
323.15 K, x1 = 1 | 1199.67 ± 4 | 1307.7 ± 4
